Experimental data as given in PMC12338828, “Evaluation of organotin (IV) dithiocarbamate compounds as potential anti-leukemia agents towards CCRF-CEM (CCL-119) cell line: Cytotoxic, apoptotic, cell cycle and genotoxic study” (PLOS One, 2025).
Several values for one entry are separate records, joined by “and”; a condition that tells them apart may be missing. Identical values can stand only once. Like-named read-outs stand apart in the source and are kept apart here.

What was measured:
WIL2-NS cells = test system: WIL2-NS cells; set-up: method as in Rasli et al. (2023); conditions: non-cancerous cells; 24 hours of exposure; graph referred to earlier paper; ref Rasli et al. (2023); cited from earlier work
CCL-119 cells [1] = assay: Cell cycle analysis (PI/RNase staining); format: cell-based; conditions: 24 hours at IC50; single replicates n1-n3
Procedure: The cells were cultured and seeded in a 6-well plate at 1 x 10^6 cells/mL. VCR was used as a positive control, and untreated cells were used as a negative control in this assay. The concentration of the compounds and VCR was followed by IC50 values that were taken from the MTT assay.
After 24 hours of incubation, all cells in the plate were transferred to the Eppendorf tube and centrifuged for 5 minutes at 4°C at 1500 rpm. After centrifuging, the supernatant was removed, and cells were washed with 500 µL cold PBS three times. The pellet was fixed by using 70% ethanol overnight at −20°C. Next, the samples were stained with 500 µL of PI/RNase staining buffer and incubated for 15 minutes. The samples were then transferred into Falcon tubes. The data was recorded using a flow cytometer and analyzed using ModFit LT software.

CCL-119 cells [2] = assay: Mode of cell death, Annexin V-FITC/PI staining (flow cytometry); format: cell-based; conditions: for Early Apoptosis (Q4) / Late Apoptosis (Q2) / Necrosis (Q1) / Viable (Q3): 24 hours at IC50, single replicates n1-n3; for cell death through apoptosis (population of cells): early + late apoptosis
Procedure: (§1) The mode of cell death can be observed through the Annexin V-FITC/PI staining (BD, USA). The result of this test is either apoptosis or necrosis. […] VCR was used as a positive control, while cells without any treatment were used as a negative control. Then, the plate was incubated for 24 hours. After the incubation, the cell suspension in each well was collected into different Eppendorf tubes. The tubes were then centrifuged for 5 minutes at 1500 rpm at 4°C. After the centrifuge, the supernatant in the tubes was removed, and the cell pellets were washed twice with cold PBS. Then, centrifuge the tubes again and remove the supernatant. Next, 100 µL of Annexin V binding buffer was resuspended in each tube, and 5 µL Annexin V-FITC was pipetted into the tube to stain the cells for 15 minutes at room temperature, dark. After that, 5 µL of propidium iodide was piped into the tube for 5 minutes. The staining process is done in dark conditions. Lastly, the sample was transferred into the Falcon tube, and each tube was resuspended in 400 µL of Annexin V binding buffer. The sample was analyzed using a flow cytometer (BD FACS Canto II) within one hour.

CCL-119 cells [3] = assay: MTT cytotoxicity assay; conditions: for cell viability at 0.31 µM / cell viability at 0.63 µM / cell viability at 1.25 µM / cell viability at 2.50 µM / cell viability at 5.00 µM / Selectivity Index (SI): 24 hours; for cell viability at 0.31 µM / cell viability at 0.63 µM / cell viability at 1.25 µM / cell viability at 2.50 µM / cell viability at 5.00 µM: single replicates n1-n3, untreated = 100.00; for cell viability at 2.50 µM: 2.5 µM; for Selectivity Index (SI): IC50 WIL2-NS / IC50 CCL-119; for IC50: read-out: IC50 (µM) CCL-119
Procedure: (§2) The T-acute lymphoblastic leukemia cell line, CCRF-CEM (CCL-119™), and a non-cancerous cell, WIL2-NS (CRL-8155™), were purchased from the American Type Culture Collection (ATCC). Both are suspension types of cells and were cultured in Roswell Park Memorial Institute Medium 1640 (RPMI-1640) (Sigma-Aldrich), supplemented with 10% Fetal Bovine Serum (FBS) (Capricorn Scientific) and 1% penicillin-streptomycin (Nacalai Tesque) to obtain the complete growth medium and were incubated at 37 °C with a 5% CO2 incubator. Both suspension cells are used for tests when the cells’ passage becomes passage 3–10 (maximum).
(§3) All stock solutions of the organotin (IV) dithiocarbamate compounds were prepared at 10 mM and dissolved in dimethyl sulphoxide (DMSO) (ChemAR®). The stock solutions were stored at 4°C; fresh dilutions were made by adding the RPMI-1640 medium before the experiment. The dilution is carried out using the serial dilution method to obtain the desired concentrations, which are 5 µM, 2.5 µM, 1.25 µM, 0.63 µM, 0.32 µM, and 0.16 µM in this study. Vincristine (VCR) is used as a positive control in this study.
(§4) Both CCL-119 and WIL2-NS cells were seeded in a 96-well plate at a final concentration of 5 x 10^5 cells/well and treated with 5 µM, 2.5 µM, 1.25 µM, 0.63 µM, 0.32 µM, and 0.16 µM of organotin (IV) dithiocarbamate compound for 24 hours at 37°C with 5% CO2. VCR was used as a positive control in this study, while cells without treatment were used as a negative control. After 24 hours of exposure, 20 µL of MTT (Merck) salt solution was added into each well and incubated for another 4 hours. The plate was wrapped with aluminium foil as MTT salt is light sensitive. After 4 hours, the purple crystal formazan was formed. All the medium was removed carefully from each well, and 200 µL DMSO was added to each well to dissolve the purple formazan crystal. Then, the plates were incubated for an additional 15 minutes. The results were analyzed and recorded using an ELISA microplate reader at 570 nm. The data was then plotted into a graph, and IC50 values were determined.
(§5) The selectivity index (SI) is determined by dividing the cytotoxic activity (IC50 value) of each compound on a non-cancerous cell line (WIL2-NS) by the leukemia cell line (CCL-119). […] WIL2- NS cell lines were selected as the comparator because it is a non-cancerous human B lymphoblast cell line, which is like CCL-119 (T-lymphoblastic leukemia), derived from lymphocytes. This choice ensures that comparisons are made between biologically similar cell types, minimizing variability that could arise from differences in tissue origin or lineage.

CCL-119 cells [4] = assay: Alkaline comet assay; format: cell-based
Procedure: VCR was used as a positive control, and untreated cells were used as a negative control in this assay. The cells were incubated for 1 hour. After incubation, cells in each well were transferred to the Eppendorf tube to centrifuge for 5 minutes at 4°C by using a refrigerated microcentrifuge. The supernatant was removed, and the samples were washed with 1 mL of cold PBS. This process was repeated 3 times. After completion of the process, the supernatant was removed, and the pellet was left for a while on top of the ice while preparing the slide.
About 140 µL of normal melting agar (NMA) is pipetted on top of the fully frosted slide, and a cover slip is put on the agar for 5 minutes or until the agar fully solidifies. After that, the cover slip was removed, and 80 µL of low melting agar (LMA) was added to an Eppendorf tube containing the pellet of cells. The suspension was then transferred into a frosted slide with NMA agar. The cover slip was then put back on top of the frosted slide for 10 minutes or until dry. Next, the slide was transferred into a Coplin jar that contained lysis buffer solution and Triton X-100. The slides were then incubated at 4°C overnight. The slides were arranged on an electrophoresis tank filled with electrophoresis buffer for 20 minutes. Electrophoresis is done for another 20 minutes at 25 V with 300 mA. The slides were washed with a neutralization buffer solution 3 times at a 5-minute time interval. Finally, 30 µL of ethidium bromide (50 µg/mL) was added, and the slide was observed by using fluorescence microscopy (OLYMPUS BX51TR). CometScore software is used to analyze the DNA damage of the cells. The comet assay was performed under alkaline conditions (pH > 13) to detect both single- and double-strand DNA breaks.

[5] = Mode of cell death, Annexin V-FITC/PI staining (flow cytometry); format: cell-based; conditions: human, Viable (Q3)
Procedure: as §1

in vitro = conditions: human
Procedure: as §2, §3, §4, §5

Jurkat E6.1 cells = test system: Jurkat E6.1 cells; set-up: method as in Awang et al. (2015) [26]; conditions: ref Awang et al. (2015) [26]; cited from earlier work
[6] = 1 hour of exposure, single replicates n1-n3
[7] = 24 hours of exposure, mean ± SEM, n = 3

| SMILES | IC50 (WIL2-NS cells) | cells in G0/G1 phase (CCL-119 cells [1]) | cells in G2/M phase (CCL-119 cells [1]) | cells in S phase (CCL-119 cells [1]) | Early Apoptosis (Q4) (CCL-119 cells [2]) | Late Apoptosis (Q2) (CCL-119 cells [2]) | Necrosis (Q1) (CCL-119 cells [2]) | Viable (Q3) (CCL-119 cells [2]) | cell viability at 0.31 µM (CCL-119 cells [3]) | cell viability at 0.63 µM (CCL-119 cells [3]) | cell viability at 1.25 µM (CCL-119 cells [3]) | cell viability at 2.50 µM (CCL-119 cells [3]) | cell viability at 5.00 µM (CCL-119 cells [3]) | Selectivity Index (SI) (CCL-119 cells [3]) | Tail moment (CCL-119 cells [4]; 1 hour of exposure, mean ± SEM) | percentage of DNA intensity in the tail (CCL-119 cells [4]; 1 hour of exposure, mean ± SEM) | % DNA intensity (CCL-119 cells [4]; [6]) | Tail moment (CCL-119 cells [4]; [6]) | cell death through apoptosis (population of cells) (CCL-119 cells [2]; 24 hours, treated at IC50) | IC50 (CCL-119 cells [3]; [7]) | further results |
| --- | --- | --- | --- | --- | --- | --- | --- | --- | --- | --- | --- | --- | --- | --- | --- | --- | --- | --- | --- | --- | --- |
| CCN(CC)C(=S)[S][Sn]([c]1ccccc1)([c]1ccccc1)[c]1ccccc1 [ODTC 5, triphenyltin (IV) diethyl dithiocarbamate] | 0.79 ± 0.05 µM | 64.02% and 86.49% and 54.56% | 30.58% and 13.51% and 45.44% | 5.4% and 0% | 10.9% and 47.3% and 16.6% | 6.4% and 17.1% and 18.5% | 12.9% and 0.1% | 69.8% and 35.6% and 64.8% | 37.70% and 42.75% and 36.81% | 39.38% and 30.79% and 37.35% | 35.19% and 39.06% and 29.63% | 37.67% and 28.99% and 27.66% | 16.16% and 17.11% and 21.93% | 4.16 | 12.61 ± 1.56 A.U | 11.59 ± 1.18% | 13.8528% and 11.0312% and 9.872% | 15.0222 A.U and 13.1179 A.U and 9.676 A.U | – | – | population of cells undergoing necrosis (CCL-119 cells [2]; 24 hours, treated at IC50): 4.37% |
| CC(C)N(C(=S)[S][Sn]([CH3])([CH3])[S]C(=S)N(C(C)C)C(C)C)C(C)C [ODTC 6, dimethyltin (IV) diisopropyl dithiocarbamate] | 5 ± 1.04 µM | 65.00% and 60.00% and 55.00% | 4.80% and 5.00% and 2.80% | 30.20% and 35.00% and 42.20% | 44.7% and 48.9% and 45.6% | 33.5% and 23.8% and 26.2% | 0.1% and 0.3% and 0.2% | 21.6% and 27% and 28.1% | 58.47% and 122.11% and 74.00% | 54.60% and 100.55% and 42.63% | 68.83% and 73.56% and 74.68% | 43.76% and 67.94% and 56.55% | 56.86% and 66.74% and 57.64% | – | – | – | 4.005% and 4.8% and 5.931% | 3.51 A.U and 4.102 A.U and 5.014 A.U | 74.2% | 3.1 ± 1.08 µM | DNA damage / genotoxic effect (in words) (CCL-119 cells [4]): no DNA damage |
| CCN(CC)C(=S)[S][Sn]([CH3])([CH3])[S]C(=S)N(CC)CC [ODTC 7, dimethyltin (IV) diethyl dithiocarbamate] | 0.5 ± 0.34 µM | 70.20% and 67.80% and 60.00% | 1.80% and 0.20% and 1.00% | 28.00% and 32.00% and 39.00% | 24.7% and 24.4% and 29.9% | 70.3% and 71.5% and 65.3% | 0.7% and 0.4% | 4.4% and 3.7% and 4.2% | 53.85% and 25.00% and 27.93% | 22.79% and 38.51% and 14.94% | 25.40% and 25.00% and 5.26% | 11.18% and 20.05% and 9.03% | 4.79% and 42.34% and 14.76% | – | – | – | 6.521% and 7.002% and 7.823% | 5.822 A.U and 6.511 A.U and 7.52 A.U | 95.6% | 0.5 ± 0.3 µM | DNA damage / genotoxic effect (in words) (CCL-119 cells [4]; 1 hour of exposure, damage when TM > 5 A.U. and TI > 10%): no DNA damage |
| CC[C@]1(O)C[C@H]2CN(CCc3c([nH]c4ccccc34)[C@@](C(=O)OC)(c3cc4c(cc3OC)N(C=O)[C@H]3[C@@](O)(C(=O)OC)[C@H](OC(C)=O)[C@]5(CC)C=CCN6CC[C@]43[C@@H]65)C2)C1 [VCR, Vincristine, reference compound] | 2.89 ± 0.03 µM | 36.70% and 30.32% and 29.02% | 5.35% and 8.00% and 3.69% | 57.95% and 61.68% and 67.28% | 39.2% and 38.7% and 37.4% | 19% and 17.2% and 17.9% | 0.45% and 0.54% and 0.51% | – | – | – | – | – | – | below 2 | 4.17 ± 0.74 A.U | 8.48 ± 1.09% | 6.493% and 8.677% and 10.2647% | 2.837 A.U and 4.286 A.U and 5.38 A.U | 56.46% | – | viability at 24 h [5]: 44.4%; viability at 24 h, 0.63 µM (in vitro; cell viability at 0.63 µM): 50.6%; viability at 24 h, 1.25 µM (in vitro; cell viability at 1.25 µM): 46.3%; viability at 24 h, 5 µM (in vitro; cell viability at 5.00 µM): 41.6%; IC50 (CCL-119 cells [3]; 24 h): 1.82 ± 1.53 µM; Selectivity Index (SI) (CCL-119 cells [3]; listed as Vincristine (VCR)): 1.59 |
| CCCCN(C(=S)[S][Sn]([c]1ccccc1)([c]1ccccc1)[c]1ccccc1)c1ccccc1 [triphenyltin (IV) butylphenyl dithiocarbamate] | – | – | – | – | – | – | – | – | – | – | – | – | – | – | – | – | – | – | – | – | mode of cell death in Jurkat E6.1 cells (Jurkat E6.1 cells): predominant induction of early-phase apoptotic cell death |
